PubChem BioAssay AID540269 (Sanford-Burnham Center for Chemical Genomics, 2011)
Active and inactive are the calls of the source. The rule behind the calls is not given here.

What follows are compounds tested against glucose-6-phosphate dehydrogenase-6-phosphogluconolactonase (Plasmodium falciparum 3D7) (assay: PfG6PD enzyme inhibitors, kinetic NADPH readout, dose response, orthogonal assay, biochemical, kinetic NADPH detection (AID 540269)). Details: purified PfG6PD-6PGL.
`O=C(Sc1n[nH]c(=O)[nH]c1=O)c1ccccc1` showed an IC50 of 22.8 µM. `COc1ccc(C(=O)c2c(C(F)(F)F)oc3c2C(=O)c2ccccc2C3=O)cc1OC` was tested, and the IC50 was > 80 µM (inactive). With `Cc1nc2c(o1)C(=O)c1ccccc1C2=Nc1ccccc1` the IC50 was > 80 µM (inactive). Compound `Clc1nssc1=Nc1nncs1` has an IC50 of 33.4 µM. For `O=C(CN1C(=O)C2C3C=CC(C3)C2C1=O)OCC(=O)c1ccc([N+](=O)[O-])cc1` (centres undefined), the IC50 was > 80 µM (inactive). For `Cc1ccc(/C=C/C(=O)N2CCN(S(=O)(=O)c3ccc(C)c(C)c3)CC2)o1`, the IC50 was > 80 µM (inactive). `COc1cc(N)c2ncccc2c1SC` showed an IC50 of 38.8 µM. Work on `Cc1nnc(Sc2cc(NCCO)c([N+](=O)[O-])c3nonc23)s1` yielded an IC50 of 36.6 µM. In the case of `CN(C)c1ccc(C=c2c3cc([N+](=O)[O-])ccc3n3c2cc(-c2ccccc2)[n+]3C)cc1`, the IC50 is reported as 35.1 µM. In the case of `CCOc1ccccc1NC(=O)CCCc1nc2ccccc2c(=O)[nH]1`, the IC50 is reported as > 80 µM (inactive). With `CC(C)c1cc2c(c(O)c1O)[C@@]13CCCC(C)(C)C1CC2OC3=O` (some centres undefined) the IC50 was 58.4 µM. `Cn1c(=O)[nH]c(=O)c2c1nc(SCCN1CCCCC1)n2CCCc1ccccc1` gave an IC50 of 56.7 µM. In the case of `Cc1ccc(SC2=C(Sc3ccc(C)cc3)C(=O)c3ccccc3C2=O)cc1`, the IC50 is reported as 34.7 µM. With `Nc1ccc(N(CCO)CCO)cc1` the IC50 was > 80 µM (inactive). `COc1ccc(Cl)cc1NC(=O)c1cccc([N+](=O)[O-])c1O` was tested, and the IC50 was > 80 µM (inactive). In the case of `O=C(CBr)c1ccc([N+](=O)[O-])c(CS(=O)(=O)c2ccc(Cl)cc2)c1`, the IC50 is reported as > 80 µM (inactive). `Cc1[nH]c2ccccc2c1/C=N/NC(=O)c1cccc(S(=O)(=O)Nc2ccccc2Cl)c1` gave an IC50 of 59.3 µM. In the case of `[O-]/[N+](=C\c1ccco1)c1ccc(Cl)cc1`, the IC50 is reported as 76.7 µM. With `CNCc1ccccc1Sc1cc(O)ccc1O` the IC50 was 54.5 µM. `CCc1cc(-c2n[nH]c(C)c2-c2ccccc2Cl)c(O)cc1OC` was tested, and the IC50 was > 80 µM (inactive). `O=C(Cn1sc2ccccc2c1=O)Nc1ccc(F)cc1` was tested, and the IC50 was 13.8 µM. `COc1cc(N)c2ncccc2c1Cl` was tested, and the IC50 was 45.8 µM. For `O=C(CSc1nc2cc(Cl)ccc2s1)c1ccco1`, the IC50 was > 80 µM (inactive). Work on `CC(C)(C)c1ccc(C(=O)Nc2sc3c(c2C(=O)O)CCC3)cc1` yielded an IC50 of 12.7 µM. In the case of `COc1ccccc1N1C(=O)C=C(Sc2nc(C)cc(C)n2)C1=O`, the IC50 is reported as > 80 µM (inactive). In the case of `[O-]/[N+](=C\c1ccccc1)c1ccc(Br)cc1`, the IC50 is reported as > 80 µM (inactive). In the case of `Cc1cc(C)nc(/N=C(\N)Nc2ccccc2-c2ccccc2)n1`, the IC50 is reported as > 80 µM (inactive). `CN(C)Cc1cc(O)c(CN(C)C)cc1O` was tested, and the IC50 was 25.6 µM. `O=[N+]([O-])c1cnc(Sc2ccncn2)c([N+](=O)[O-])c1` gave an IC50 of 62.8 µM. For `CCN1CCCC1CNC(=O)c1ccc2c(c1)NC(=O)/C(=C\c1ccccc1Cl)S2` (centres undefined), the IC50 was 8.01 µM. `COc1cccc(CNc2ccc3[nH]c(=O)[nH]c3c2)c1OCc1ccccc1Cl` was tested, and the IC50 was > 80 µM (inactive). With `CCNc1nc(NC(C)C)nc(NS(=O)(=O)c2ccc(Cl)cc2)n1` the IC50 was > 80 µM (inactive). `CCn1c([N+](=O)[O-])nc2c1c(=O)[nH]c(=O)n2C` was tested, and the IC50 was > 80 µM (inactive). `CC(SCC(=O)Nc1ccccc1)c1nc2ccccc2c(=O)[nH]1` (centres undefined) was tested, and the IC50 was > 80 µM (inactive). `Cc1ccc(/C=C/C(=O)NC2CCCCCCC2)o1` was tested, and the IC50 was > 80 µM (inactive). For `O=C(CCC(=O)Nc1ccccc1Cl)N/N=C/c1ccccc1`, the IC50 was > 80 µM (inactive). For `c1ccc(SSc2ccccn2)nc1`, the IC50 was 64.1 µM. `Cc1ccc(NC(=O)c2cc(N3C(=O)C=CC3=O)ccc2N2CCOCC2)cc1` was tested, and the IC50 was > 80 µM (inactive). `CC1CCc2[nH]c3ccc(C(=O)N(C)CC(=O)Nc4ccccc4C(F)(F)F)cc3c2C1` (centres undefined) was tested, and the IC50 was > 80 µM (inactive). For `COc1ccc(Nc2cc(C)c3c(O)cccc3n2)cc1`, the IC50 was > 80 µM (inactive). With `COc1cc(NC(C)CCc2ccccc2)cc(OC)c1OC` (centres undefined) the IC50 was > 80 µM (inactive). `O=C(CN1CCN(c2ccc(O)cc2)CC1)Nc1cc(S(=O)(=O)N2CCOCC2)ccc1Cl` was tested, and the IC50 was > 80 µM (inactive). With `COc1ccc2c(c1)c(=Cc1ccc(N(C)C)cc1)c1cc(-c3ccccc3)[n+](C)n12` the IC50 was 64.4 µM. In the case of `Cc1ccc(-c2csc(NC(=O)c3ccccc3F)c2C(=O)O)cc1`, the IC50 is reported as 53.7 µM. `CCc1cc(-c2n[nH]c(C)c2-c2nc3ccccc3n2C)c(O)cc1O` showed an IC50 of 9.3 µM. For `Cc1cccc(C2(c3cccc(C)c3)CC2C(=O)Nc2ccc([N+](=O)[O-])cc2O)c1` (centres undefined), the IC50 was > 80 µM (inactive). `N#Cc1ccc2c(=O)n(-c3ccccc3)sc2c1` was tested, and the IC50 was 39.6 µM. With `Nn1c(CSc2nc3ccccc3o2)nnc1CSc1nc2ccccc2o1` the IC50 was > 80 µM (inactive). With `C=CCOc1c(Cl)cc(CNc2ccc(N(C)C)cc2)cc1OC` the IC50 was 61.5 µM. Compound `CCN(CC)CCn1c2ccccc2c(=O)c2c(O)ccc(O)c21` has an IC50 of 33.1 µM. Compound `N#C/C(C(=O)Nc1ccc(Cl)cc1)=C(/S)Nc1ccccc1` has an IC50 of 41.5 µM. `O=C(CSc1nc2ccccc2[nH]1)NC1CCCc2ccccc21` (centres undefined) was tested, and the IC50 was > 80 µM (inactive). With `CC(C)c1nnc(NC(=O)c2cc3ccccc3o2)s1` the IC50 was 31.2 µM. With `c1ccc(-c2nc(N3CCOCC3)s[n+]2-c2ccccc2)cc1` the IC50 was > 80 µM (inactive). `COc1ccc(CN(C)S(=O)(=O)c2nnc(NC(=O)c3cccc(C)c3)s2)cc1OC` was tested, and the IC50 was 22.2 µM. With `O=C(Nc1ccc(N2CCOCC2)c(Cl)c1)c1ccc(Cl)cc1` the IC50 was > 80 µM (inactive). With `CCn1c(N)c(C(=O)NC)sc1=S` the IC50 was 26.3 µM. In the case of `CCCCCCCCSC1=CC(=O)C(OC)=C(OC)C1=O`, the IC50 is reported as > 80 µM (inactive). In the case of `O=C1C=CC(=O)N1c1ccc(N2CCCCC2)cc1`, the IC50 is reported as 37 µM. Compound `Cc1ccc(S(=O)(=O)N(C(=O)c2ccncc2)c2ccc(OC(=O)c3ccncc3)c3ccccc23)cc1` has an IC50 of 55.7 µM. Work on `CC(C)c1nnc(NC(=O)c2sc3ccccc3c2Cl)s1` yielded an IC50 of 35.5 µM. `Clc1ccc2nc(-c3ccc(Br)s3)cn2c1` was tested, and the IC50 was > 80 µM (inactive). In the case of `O=[N+]([O-])c1ccc(-[n+]2ccc3ccccc3c2)c([N+](=O)[O-])c1`, the IC50 is reported as > 80 µM (inactive). With `NCCc1cc(O)c(O)cc1O` the IC50 was 39.1 µM. With `CCN1CCN(C(=S)c2ccc(Cl)c(Cl)c2)CC1` the IC50 was > 80 µM (inactive). For `CCc1ccccc1N1CSC2=C(C#N)C(c3ccccc3F)CC(=O)N2C1` (centres undefined), the IC50 was > 80 µM (inactive). Work on `Cc1cc(C)c2c(=O)n(CC(=O)Nc3cccc(F)c3)sc2n1` yielded an IC50 of 41.6 µM. `Cc1cc(C)c(S(=O)(=O)/N=C2/C=C(SCC(=O)O)C(=O)c3ccccc32)cc1C` was tested, and the IC50 was > 80 µM (inactive). `COc1ccc(C2(CNC(=O)c3ccc(OC)c([N+](=O)[O-])c3)CCCCC2)cc1OC` was tested, and the IC50 was > 80 µM (inactive). With `Cc1cc(C)c2c(=O)n(CC(=O)Nc3cccc(Cl)c3C)sc2n1` the IC50 was 49.6 µM. In the case of `COC1=CC(=O)C=C(OC)C1(O)CC(C)=O`, the IC50 is reported as > 80 µM (inactive). Compound `O=c1c2ccccc2sn1-c1cccc(Cl)c1` has an IC50 of 14.2 µM. In the case of `O=C(CNC(=O)c1cccs1)OCC(=O)c1ccc([N+](=O)[O-])cc1`, the IC50 is reported as > 80 µM (inactive). Work on `CC1(C)Cc2c(sc3nc4n(-c5ccccc5)c(=O)c(CCC(=O)O)nn4c(=O)c23)CO1` yielded an IC50 of 11.7 µM. In the case of `O=S(=O)(Nc1cc(Sc2cccc3cccnc23)c(O)c2ccccc12)c1ccc(F)cc1`, the IC50 is reported as 59.4 µM. Compound `Cc1ccc(-n2sc3cc(F)ccc3c2=O)c(C)c1` has an IC50 of 12.5 µM. `Oc1cc(-n2cccn2)c(O)cc1-n1cccn1` was tested, and the IC50 was 68.8 µM. With `Cc1nc2ccccn2c1-c1ccnn1S(=O)(=O)c1ccc(F)cc1` the IC50 was > 80 µM (inactive). With `NC(=O)N/N=C/c1ccc(-n2nncc2-c2ccc(Cl)cc2)cc1` the IC50 was > 80 µM (inactive). In the case of `COc1cc(C(=O)O/N=C2/C=C(C)C(=O)C=C2C)cc(OC)c1OC`, the IC50 is reported as > 80 µM (inactive). `Cc1ccc(NC(=O)Cn2sc3ccccc3c2=O)cc1` gave an IC50 of 14.4 µM. In the case of `CCCCCCCCn1sccc1=O`, the IC50 is reported as 66.4 µM. Compound `O=C(CCc1ccc(O)c(O)c1)N/N=C/c1cc2c(cc1[N+](=O)[O-])OCO2` has an IC50 of 16.6 µM. For `CCn1c2ccccc2c2cc(/C=N/n3cn[nH]c3=S)ccc21`, the IC50 was 9.07 µM. Work on `Cc1ccc(S(=O)(=O)Oc2cccc(/C=N/Nc3ccc(C(=O)O)cc3)c2)cc1` yielded an IC50 of 41.4 µM. For `c1cc2c(cc1NC1CCCCCC1)OCO2`, the IC50 was > 80 µM (inactive). With `Cc1cc(O)c(C(C)C)cc1N=Cc1ccccc1[N+](=O)[O-]` the IC50 was > 80 µM (inactive). In the case of `COc1cc(/C=N/Nc2nncn2N)ccc1OCc1c(C)no[n+]1[O-]`, the IC50 is reported as > 80 µM (inactive). `[O-]/[N+](=C\c1ccncc1)c1ccccc1` was tested, and the IC50 was > 80 µM (inactive). `N#Cc1c(C#N)c(SSc2c(C#N)c(C#N)c(N)n2-c2ccccc2)n(-c2ccccc2)c1N` was tested, and the IC50 was > 80 µM (inactive). In the case of `Cc1ccccc1OCC(=O)NCC(=O)OCC(=O)c1ccc([N+](=O)[O-])cc1`, the IC50 is reported as 67.4 µM. `O=C(Nc1nnc(S(=O)(=O)N2CCCCCC2)s1)c1cccc(Br)c1` was tested, and the IC50 was 14.1 µM. For `CC(=O)Nc1ccc2c(c1)Cc1cc(N3C(=O)C=CC3=O)ccc1-2`, the IC50 was 27.2 µM. With `Oc1ccc(-c2cn3c(n2)SCC3)cc1O` the IC50 was 46.5 µM. With `CCN(CC)C(=O)c1c(C)[nH]c(=S)c(C#N)c1-c1ccco1` the IC50 was > 80 µM (inactive). Compound `O=[N+]([O-])c1ccc(N/N=C/c2ccc(O)c(O)c2O)c(S(=O)(=O)N2CCOCC2)c1` has an IC50 of 75.5 µM. `CCC(CO)[n+]1c(C)cc(/C=C2\Sc3ccccc3N2Cc2ccccc2)cc1C` (centres undefined) was tested, and the IC50 was 24.3 µM. In the case of `C/C(Cn1nnc([N+](=O)[O-])n1)=N\NC(=O)c1ccc(O)cc1`, the IC50 is reported as > 80 µM (inactive). `COC(=O)CCC(=O)Nc1sc(Cc2ccccc2)c(C)c1C(N)=O` was tested, and the IC50 was 35.1 µM. In the case of `O=c1c2ccccc2sn1-c1ccc(S(=O)(=O)N2CCCC2)cc1`, the IC50 is reported as 28.4 µM. `COc1cccc(C(=O)Nc2nnc(C(C)C)s2)c1` gave an IC50 of 21.4 µM. With `CN1CCc2cccc3c2[C@@H]1Cc1ccc(O)c(O)c1-3` the IC50 was > 80 µM (inactive). For `Cc1cc(O)c(-c2cc(O)c(C)cc2O)cc1O`, the IC50 was 44.5 µM. For `COc1ccc(NC(=S)N(CCC(C)C)C2CCN(C(C)C)CC2)cc1Cl`, the IC50 was 56.6 µM. In the case of `COC(=O)c1cc2c(n1S(=O)(=O)c1ccc(C)cc1)C(=O)C(=O)c1[nH]cc(C(=O)OCc3ccccc3)c1-2`, the IC50 is reported as > 80 µM (inactive). With `Cn1cc(S(=O)(=O)CC(=O)N2CCc3ccccc32)c2ccccc21` the IC50 was > 80 µM (inactive). `CCOC(=O)c1c2ccc(OCC(=O)NN)cc2n2ccccc12` showed an IC50 of 9.4 µM. In the case of `COCCNC(=S)Nc1ccc(N2CCOCC2)c(S(=O)(=O)Nc2ccc(Cl)cc2)c1`, the IC50 is reported as > 80 µM (inactive). With `O=c1[nH]c(NCCO)c(N=Cc2ccccc2)c(=O)[nH]1` the IC50 was > 80 µM (inactive).
